Patent US9205122B2, “Herbal composition comprising ginger and goldenrod for the treatment of cold and flu” (priority 2009, dated 2015)
≈ marks a conversion by molar mass, not a printed value.

Tests used:
[1] = tested on: Human Influenza Virus A/CA/04/09 H1N1; test: organism not typed; assay type: cell-based; settings: A/CA/04/09, MDCK, 72 h; mix as PL202:PL208
[2] = tested on: human influenza virus A/WS/33, H1N1; test: Plaque inhibition assay, influenza A/WS/33 on MDCK cell monolayer; assay type: cell-based; settings: 0.05 mg/ml, read-out: inhibition of formation of lysis plaques
[3] = tested on: influenza strain A/WS/33 (H1N1); test: Mouse influenza infection model (preventive and curative arms); assay type: in vivo, CD-1 mice; settings: curative arm, oral daily from day 0; Tamiflu 10, Nutracan 350 mg/kg
Protocol: Ginger, goldenrod and a combination thereof were assayed in a recognized animal model related to the prevention and treatment of the influenza virus (Cottey R, 2001). In this study, the ginger was assayed as a dry plant (rhizome) […] a CO2 extract. However, the relative quantity of the ginger dry plant used was equivalent to the ginger CO2 extract used in Example 1 (equivalent to the dry starting material). The ginger/goldenrod combination that was used also comprised blueberry dry powder. This formulation is named the Nutracan™ formulation and is described in Table II below.
In this model, CD-1 mice (10 females per group) were inoculated intranasally with the influenza strain A/WS/33 (H1N1) at 1×10^3 PFU as determined in a preliminary study (data not shown). […]
1) Seven groups of CD1 mice were randomized based on their weight (n=10). […] Mice were sacrificed when their general state (including abnormal behaviour, determined by a veterinarian) had deteriorated or they had lost more than 20% of their weight.

MDCK cells = settings: no virus, 72 h, mix as PL202:PL208

Structure (SMILES)	IC50 [1] [µg/mL]	inhibition at 50 µg/mL [2] [%]	MDD (mean day of death) [3]	TC50 (MDCK cells) [µg/mL]	TC90 (MDCK cells) [µg/mL]
NC(=O)c1ncn([C@@H]2O[C@H](CO)[C@@H](O)[C@H]2O)n1 [Ribavirin]	5.26 (≈ 21.5 µM)				
CCOC(=O)C1=C[C@@H](OC(CC)CC)[C@H](NC(C)=O)[C@@H](N)C1 [Tamiflu, Oseltamivir phosphate]	0.1	52	7.6	>10.3	>10.3
